≈ marks a conversion by molar mass, not a printed value.
Legend:
S. aureus strains = test: MIC against S. aureus strains; type: cell-based, Staphylococcus aureus
Experimental: (§1) Compounds were dissolved in dimethyl sulfoxide (DMSO) to achieve a starting concentration of 32 µg/mL as described by us previously. Compounds were further diluted two-fold across the 96-well honeycomb plate columns in cation adjusted Mueller Hinton broth (CAMHB), and bacterial culture was added. Plates were incubated for 18–20 h at 35 ℃ before determining the minimum concentrations at which wells had no visible turbidity to the naked eye. The MIC values were determined from at least a duplicate result obtained from three independent experiments using fresh bacterial cultures on different days.

enterococci strains = test: MIC against enterococci strains; type: cell-based; settings: tested enterococci strains
Experimental: as §1

[1] = tested on: S. aureus ATCC 33592 (Sa92); test: MIC, microdilution (CLSI); type: cell-based; settings: Staphylococcus aureus, ATCC33592; Sa92, methicillin-resistant S. aureus ATCC 33592; n = 3; read-out: MIC
Method in brief: (§2)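 2-fold dilutions in CAMHB, top 32 µg/mL (DMSO solutions); bacterial inoculum added; 18–20 h, 35 ℃; MIC = lowest conc. without turbidity by eye; ≥duplicate, n = 3 independent runs with fresh cultures on different days.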

[2] = tested on: S. aureus ATCC 33591 (Sa91); test: MIC, microdilution (CLSI); type: cell-based; settings: Staphylococcus aureus, ATCC33591; Sa91, methicillin-resistant S. aureus ATCC 33591; n = 3; read-out: MIC
Method in brief: as §2

[3] = tested on: E. faecalis ATCC 51299 (Ef99); test: MIC, microdilution (CLSI); type: cell-based; settings: Enterococcus faecalis, ATCC 51299 / VRE; Ef99, vancomycin-resistant (VRE) E. faecalis ATCC 51299; n = 3; read-out: MIC
Method in brief: as §2

[4] = tested on: S. epidermidis ATCC 700296 (Se); test: MIC, microdilution (CLSI); type: cell-based; settings: Staphylococcus epidermidis, ATCC700296; Se, S. epidermidis ATCC 700296; n = 3; read-out: MIC
Method in brief: as §2

[5] = tested on: E. faecium ATCC 700221 (Ef21); test: MIC, microdilution (CLSI); type: cell-based; settings: Enterococcus faecium, ATCC 700221 / VRE; Ef21, vancomycin-resistant (VRE) E. faecium ATCC 700221; n = 3; read-out: MIC
Method in brief: as §2

[6] = tested on: S. aureus ATCC 700699 (Sa99); test: MIC, microdilution (CLSI); type: cell-based; settings: Staphylococcus aureus, ATCC700699; Sa99, methicillin-resistant S. aureus ATCC 700699; n = 3; read-out: MIC
Method in brief: as §2

[7] = tested on: S. aureus BAA-2312 (Sa12); test: MIC, microdilution (CLSI); type: cell-based; settings: Staphylococcus aureus, BAA2312; Sa12, methicillin-resistant S. aureus BAA-2312; n = 3; read-out: MIC
Method in brief: as §2

[8] = tested on: S. aureus ATCC 25923 (Sa23); test: MIC, microdilution (CLSI); type: cell-based; settings: Staphylococcus aureus, ATCC25923; Sa23, antibiotic susceptible S. aureus ATCC 25923; n = 3; read-out: MIC
Method in brief: as §2

[9] = tested on: E. faecalis ATCC 29212 (Ef12); test: MIC, microdilution (CLSI); type: cell-based; settings: Enterococcus faecalis, ATCC29212; Ef12, antibiotic susceptible E. faecalis ATCC 29212; n = 3; read-out: MIC
Method in brief: as §2

[10] = tested on: Bacillus subtilis ATCC 6623 (Bs); test: MIC, microdilution (CLSI); type: cell-based; settings: ATCC6623; Bs, Bacillus subtilis ATCC 6623; n = 3; read-out: MIC
Method in brief: as §2

MIC (S. aureus strains; Staphylococcus aureus, S. aureus strains, including MRSA): ≥ 0.5 µg/mL | MIC (enterococci strains): 1 µg/mL (≈ 1.62 µM) | MIC [1]: 0.5 µg/mL (≈ 0.808 µM) | MIC [2]: 0.5 µg/mL (≈ 0.808 µM) | MIC [3]: 1 µg/mL (≈ 1.62 µM) | MIC [4]: 2 µg/mL (≈ 3.23 µM) | MIC [5]: 1 µg/mL (≈ 1.62 µM) | MIC [6]: 2 µg/mL (≈ 3.23 µM) | MIC [7]: 1 µg/mL (≈ 1.62 µM) | MIC [8]: 1 µg/mL (≈ 1.62 µM) | MIC [9]: 1 µg/mL (≈ 1.62 µM) | MIC [10]: 1 µg/mL (≈ 1.62 µM)
Compound: O=C(O)c1ccc(-n2cc(CNc3ccc(Br)c(Cl)c3)c(-c3cc(C(F)(F)F)cc(C(F)(F)F)c3)n2)cc1 [Compound 21, 4-[3-[3,5-Bis(trifluoromethyl)phenyl]-4-[(4-bromo-3-chloro-anilino)methyl]pyrazol-1-yl] benzoic acid]
times more effective than vancomycin and daptomycin (S. aureus strains; against S. aureus strains): up to 4 times

Reference: article PMC8398255, “Synthesis of 3,5-Bis(trifluoromethyl)phenyl-Substituted Pyrazole Derivatives as Potent Growth Inhibitors of Drug-Resistant Bacteria” (Molecules, 2021)
